{"source": "paper PMC3699191", "about": "(Journal of medicinal chemistry, 2010)", "biological_target": "mCB2 (membranes from HEK293 cells expressing mouse CB2) (Mus musculus, UniProt P47936)", "sequence (P47936 whole entry)": "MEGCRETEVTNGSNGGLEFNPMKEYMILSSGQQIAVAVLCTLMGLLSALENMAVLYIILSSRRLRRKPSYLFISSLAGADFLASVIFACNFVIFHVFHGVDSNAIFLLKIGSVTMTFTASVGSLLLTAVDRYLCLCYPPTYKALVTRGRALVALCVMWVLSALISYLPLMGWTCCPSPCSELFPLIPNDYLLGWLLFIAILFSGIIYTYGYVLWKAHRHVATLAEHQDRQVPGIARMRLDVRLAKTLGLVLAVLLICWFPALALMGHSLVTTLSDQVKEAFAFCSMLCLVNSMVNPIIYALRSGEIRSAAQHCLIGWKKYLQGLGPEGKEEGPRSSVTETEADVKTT", "assay": "Mouse CB2 binding assay, [3H]CP-55,940 competition", "details": "CB2 over CB1", "data": [{"molecule": "CC1(C)Oc2cc(C34CC5CC(CC(C5)O3)C4)cc(O)c2[C@@H]2C[C@H](O)CC[C@H]21", "note": "[compound 16]", "values": [{"measurement": "selectivity for CB2", "result": 2, "unit": "fold"}]}]}
